From patent publication US20220281848A1, “PYRAZOLE-SUBSTITUTED PYRROLIDINONES AS HERBICIDES” (FMC Corporation, priority 2019, published 2022)

Tested on: plants
Experiment: Test D post-emergence, other plants of Tables D2 and D4
Assay type: in vivo
Details: for damage to plant (100=total damage to plant; 0=no damage to plant), ABUTH / damage to plant (100=total damage to plant; 0=no damage to plant), AMARE / damage to plant (100=total damage to plant; 0=no damage to plant), BIDPI / damage to plant (100=total damage to plant; 0=no damage to plant), BRAPL / damage to plant (100=total damage to plant; 0=no damage to plant), CYPES / damage to plant (100=total damage to plant; 0=no damage to plant), DIGSA / damage to plant (100=total damage to plant; 0=no damage to plant), ECHCG / damage to plant (100=total damage to plant; 0=no damage to plant), ELEIN / damage to plant (100=total damage to plant; 0=no damage to plant), EPHHL / damage to plant (100=total damage to plant; 0=no damage to plant), GLXMA / damage to plant (100=total damage to plant; 0=no damage to plant), IPOHE / damage to plant (100=total damage to plant; 0=no damage to plant), ORYSA / damage to plant (100=total damage to plant; 0=no damage to plant), PANMI / damage to plant (100=total damage to plant; 0=no damage to plant), SETFA / damage to plant (100=total damage to plant; 0=no damage to plant), SORVU: post-emergence
Outline: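 Damage was rated visually from 0 (none) to 100 (total), at 20 DAA for pre-emergence and 15 d for post-emergence. Plants grew from safener-treated seed in a glasshouse at 24/18° C. or 20/16° C. day/night, 65% humidity, watered twice daily.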

CN1CC(c2cc(C(F)(F)F)n(C)n2)C(C(=O)Nc2ccc(F)cc2C(C)(F)F)C1=O (racemic) [Compound 26]
10: damage to plant (100=total damage to plant; 0=no damage to plant), DIGSA (rate 250, evaluated after 15 d) | damage to plant (100=total damage to plant; 0=no damage to plant), ECHCG (rate 500, evaluated after 15 d) | damage to plant (100=total damage to plant; 0=no damage to plant), ELEIN (rate 500, evaluated after 15 d) | damage to plant (100=total damage to plant; 0=no damage to plant), EPHHL (rate 250, evaluated after 15 d) | damage to plant (100=total damage to plant; 0=no damage to plant), EPHHL (rate 500, evaluated after 15 d)
0: STEME damage rating (100=total damage to plant; 0=no damage to plant) (STEME, "Cereals" Postemergent, Rates 500, evaluated after 15 d) | VERPE damage rating (100=total damage to plant; 0=no damage to plant) ("Cereals" Postemergent, Rates 130, evaluated after 15 d) | VERPE damage rating (100=total damage to plant; 0=no damage to plant) ("Cereals" Postemergent, Rates 250, evaluated after 15 d) | damage to plant (100=total damage to plant; 0=no damage to plant), ABUTH (rate 130, evaluated after 15 d) | damage to plant (100=total damage to plant; 0=no damage to plant), ABUTH (rate 250, evaluated after 15 d) | damage to plant (100=total damage to plant; 0=no damage to plant), ABUTH (rate 500, evaluated after 15 d) | damage to plant (100=total damage to plant; 0=no damage to plant), AMARE (rate 130, evaluated after 15 d) | damage to plant (100=total damage to plant; 0=no damage to plant), AMARE (rate 250, evaluated after 15 d) | damage to plant (100=total damage to plant; 0=no damage to plant), AMARE (rate 500, evaluated after 15 d) | damage to plant (100=total damage to plant; 0=no damage to plant), BIDPI (rate 130, evaluated after 15 d) | damage to plant (100=total damage to plant; 0=no damage to plant), BIDPI (rate 250, evaluated after 15 d) | damage to plant (100=total damage to plant; 0=no damage to plant), BIDPI (rate 500, evaluated after 15 d) | damage to plant (100=total damage to plant; 0=no damage to plant), CYPES (rate 130, evaluated after 15 d) | damage to plant (100=total damage to plant; 0=no damage to plant), CYPES (rate 250, evaluated after 15 d) | damage to plant (100=total damage to plant; 0=no damage to plant), CYPES (rate 500, evaluated after 15 d) | damage to plant (100=total damage to plant; 0=no damage to plant), DIGSA (rate 130, evaluated after 15 d) | damage to plant (100=total damage to plant; 0=no damage to plant), ECHCG (rate 130, evaluated after 15 d) | damage to plant (100=total damage to plant; 0=no damage to plant), ECHCG (rate 250, evaluated after 15 d) | damage to plant (100=total damage to plant; 0=no damage to plant), ELEIN (rate 130, evaluated after 15 d) | damage to plant (100=total damage to plant; 0=no damage to plant), ELEIN (rate 250, evaluated after 15 d) | damage to plant (100=total damage to plant; 0=no damage to plant), EPHHL (rate 130, evaluated after 15 d) | damage to plant (100=total damage to plant; 0=no damage to plant), GLXMA (rate 130, evaluated after 15 d) | damage to plant (100=total damage to plant; 0=no damage to plant), GLXMA (rate 250, evaluated after 15 d) | damage to plant (100=total damage to plant; 0=no damage to plant), GLXMA (rate 500, evaluated after 15 d) | damage to plant (100=total damage to plant; 0=no damage to plant), IPOHE (rate 130, evaluated after 15 d) | damage to plant (100=total damage to plant; 0=no damage to plant), IPOHE (rate 250, evaluated after 15 d) | damage to plant (100=total damage to plant; 0=no damage to plant), IPOHE (rate 500, evaluated after 15 d) | damage to plant (100=total damage to plant; 0=no damage to plant), ORYSA (rate 130, evaluated after 15 d) | damage to plant (100=total damage to plant; 0=no damage to plant), ORYSA (rate 250, evaluated after 15 d) | damage to plant (100=total damage to plant; 0=no damage to plant), ORYSA (rate 500, evaluated after 15 d) | damage to plant (100=total damage to plant; 0=no damage to plant), PANMI (rate 130, evaluated after 15 d) | damage to plant (100=total damage to plant; 0=no damage to plant), PANMI (rate 250, evaluated after 15 d) | damage to plant (100=total damage to plant; 0=no damage to plant), PANMI (rate 500, evaluated after 15 d) | damage to plant (100=total damage to plant; 0=no damage to plant), SETFA (rate 130, evaluated after 15 d) | damage to plant (100=total damage to plant; 0=no damage to plant), SORVU (rate 130, evaluated after 15 d) | damage to plant (100=total damage to plant; 0=no damage to plant), SORVU (rate 250, evaluated after 15 d) | damage to plant (100=total damage to plant; 0=no damage to plant), SORVU (rate 500, evaluated after 15 d)
80: VERPE damage rating (100=total damage to plant; 0=no damage to plant) ("Cereals" Postemergent, Rates 500, evaluated after 15 d) | damage to plant (100=total damage to plant; 0=no damage to plant), BRAPL (rate 500, evaluated after 15 d)
60: damage to plant (100=total damage to plant; 0=no damage to plant), BRAPL (rate 250, evaluated after 15 d) | damage to plant (100=total damage to plant; 0=no damage to plant), DIGSA (rate 500, evaluated after 15 d) | damage to plant (100=total damage to plant; 0=no damage to plant), SETFA (rate 250, evaluated after 15 d) | damage to plant (100=total damage to plant; 0=no damage to plant), SETFA (rate 500, evaluated after 15 d)
50: damage to plant (100=total damage to plant; 0=no damage to plant), BRAPL (rate 130, evaluated after 15 d)
